Measured values taken from publication PMC3399817 (PLoS ONE, 2012).

Tests used:
Assay in all cases: KINOMEscan
Format in all cases: binding
PCTK2 = biological target: T1, PCTK2 (Homo sapiens, UniProt Q00537); settings: PCTK2, 1 uM
T1 construct: purchased Ambit KINOMEscan (DiscoverX)
Procedure: (§1) First, we used Ambit's KINOMEscan™ technology to identify those kinases that are inhibited for substrate binding by the compounds, all assayed at 1 μM. Second, we used Invitrogen's SelectScreen® Biochemical Kinase Profiling Service to determine the in vitro IC50s for the compounds against specific kinases.

HIPK2 = biological target: T2, HIPK2 (Homo sapiens, UniProt Q9H2X6); settings: for % binding compared to no inhibitor control: HIPK2, 1 uM
T2 construct: purchased Ambit KINOMEscan (DiscoverX)
Procedure: as §1

PLK2 = biological target: T3, PLK2 (Homo sapiens, UniProt Q9NYY3); settings: PLK2, 1 uM
T3 construct: purchased Ambit KINOMEscan (DiscoverX)
Procedure: as §1

IKK-beta = biological target: T4, IKK-beta (Homo sapiens, UniProt O14920); settings: 1 uM
T4 construct: purchased Ambit KINOMEscan (DiscoverX)
Procedure: as §1

EPHA2 = biological target: T5, EPHA2 (Homo sapiens, UniProt P29317); settings: EPHA2, 1 uM
T5 construct: purchased Ambit KINOMEscan (DiscoverX)
Procedure: as §1

MEK2 = biological target: T6, MEK2 (Homo sapiens, UniProt P36507); settings: MEK2, 1 uM
T6 construct: purchased Ambit KINOMEscan (DiscoverX)
Procedure: as §1

FLT4 = biological target: T7, FLT4 (Homo sapiens, UniProt P35916); settings: FLT4, 1 uM
T7 construct: purchased Ambit KINOMEscan (DiscoverX)
Procedure: as §1

FLT1 = biological target: T8, FLT1 (Homo sapiens, UniProt P17948); settings: FLT1, 1 uM
T8 construct: purchased Ambit KINOMEscan (DiscoverX)
Procedure: as §1

EPHB3 = biological target: T9, EPHB3 (Homo sapiens, UniProt P54753); settings: EPHB3, 1 uM
T9 construct: purchased Ambit KINOMEscan (DiscoverX)
Procedure: as §1

ZAP70 = biological target: T10, ZAP70 (Homo sapiens, UniProt P43403); settings: ZAP70, 1 uM
T10 construct: purchased Ambit KINOMEscan (DiscoverX)
Procedure: as §1

[1] = biological target: T11, JAK3(JH1domain-catalytic) (Homo sapiens, UniProt P52333); settings: 1 uM
T11 construct: JAK3(JH1domain-catalytic); purchased Ambit KINOMEscan (DiscoverX)
Procedure: as §1

[2] = biological target: T12, RPS6KA1(Kin.Dom.1-N-terminal) (Homo sapiens, UniProt Q15418); settings: 1 uM
T12 construct: RPS6KA1(Kin.Dom.1-N-terminal); purchased Ambit KINOMEscan (DiscoverX)
Procedure: as §1

PIM3 = biological target: T13, PIM3 (Homo sapiens, UniProt Q86V86); settings: PIM3, 1 uM
T13 construct: purchased Ambit KINOMEscan (DiscoverX)
Procedure: as §1

SRPK2 = biological target: T14, SRPK2 (Homo sapiens, UniProt P78362); settings: SRPK2, 1 uM
T14 construct: purchased Ambit KINOMEscan (DiscoverX)
Procedure: as §1

KIT(D816V) = biological target: T15, KIT(D816V) (Homo sapiens, UniProt P10721, D816V); settings: 1 uM
T15 construct: purchased Ambit KINOMEscan (DiscoverX)
Procedure: as §1

ERBB4 = biological target: T16, ERBB4 (Homo sapiens, UniProt Q15303); settings: ERBB4, 1 uM
T16 construct: purchased Ambit KINOMEscan (DiscoverX)
Procedure: as §1

YES = biological target: T17, YES (Homo sapiens, UniProt P07947); settings: 1 uM
T17 construct: purchased Ambit KINOMEscan (DiscoverX)
Procedure: as §1

p38-alpha = biological target: T18, p38-alpha (Homo sapiens, UniProt Q16539); settings: 1 uM
T18 construct: purchased Ambit KINOMEscan (DiscoverX)
Procedure: as §1

RIOK1 = biological target: T19, RIOK1 (Homo sapiens, UniProt Q9BRS2); settings: RIOK1, 1 uM
T19 construct: purchased Ambit KINOMEscan (DiscoverX)
Procedure: as §1

PIM2 = biological target: T20, PIM2 (Homo sapiens, UniProt Q9P1W9); settings: PIM2, 1 uM
T20 construct: purchased Ambit KINOMEscan (DiscoverX)
Procedure: as §1

ACVR2A = biological target: T21, ACVR2A (Homo sapiens, UniProt P27037); settings: 1 uM
T21 construct: purchased Ambit KINOMEscan (DiscoverX)
Procedure: as §1

BMPR2 = biological target: T22, BMPR2 (Homo sapiens, UniProt Q13873); settings: BMPR2, 1 uM
T22 construct: purchased Ambit KINOMEscan (DiscoverX)
Procedure: as §1

p38-beta = biological target: T23, p38-beta (Homo sapiens, UniProt Q15759); settings: 1 uM
T23 construct: purchased Ambit KINOMEscan (DiscoverX)
Procedure: as §1

[3] = biological target: T24, RPS6KA4(Kin.Dom.1-N-terminal) (Homo sapiens, UniProt O75676); settings: 1 uM
T24 construct: RPS6KA4(Kin.Dom.1-N-terminal); purchased Ambit KINOMEscan (DiscoverX)
Procedure: as §1

LIMK2 = biological target: T25, LIMK2 (Homo sapiens, UniProt P53671); settings: LIMK2, 1 uM
T25 construct: purchased Ambit KINOMEscan (DiscoverX)
Procedure: as §1

CDKL2 = biological target: T26, CDKL2 (Homo sapiens, UniProt Q92772); settings: CDKL2, 1 uM
T26 construct: purchased Ambit KINOMEscan (DiscoverX)
Procedure: as §1

MINK = biological target: T27, MINK (Homo sapiens, UniProt Q8N4C8); settings: 1 uM
T27 construct: purchased Ambit KINOMEscan (DiscoverX)
Procedure: as §1

EPHA3 = biological target: T28, EPHA3 (Homo sapiens, UniProt P29320); settings: EPHA3, 1 uM
T28 construct: purchased Ambit KINOMEscan (DiscoverX)
Procedure: as §1

MYLK = biological target: T29, MYLK (Homo sapiens, UniProt Q15746); settings: 1 uM
T29 construct: purchased Ambit KINOMEscan (DiscoverX)
Procedure: as §1

TAOK3 = biological target: T30, TAOK3 (Homo sapiens, UniProt Q9H2K8); settings: TAOK3, 1 uM
T30 construct: purchased Ambit KINOMEscan (DiscoverX)
Procedure: as §1

JNK2 = biological target: T31, JNK2 (Homo sapiens, UniProt P45984); settings: JNK2, 1 uM
T31 construct: purchased Ambit KINOMEscan (DiscoverX)
Procedure: as §1

CSNK1D = biological target: T32, CSNK1D (Homo sapiens, UniProt P48730); settings: 1 uM
T32 construct: purchased Ambit KINOMEscan (DiscoverX)
Procedure: as §1

TSSK1B = biological target: T33, TSSK1B (Homo sapiens, UniProt Q9BXA7); settings: 1 uM
T33 construct: purchased Ambit KINOMEscan (DiscoverX)
Procedure: as §1

BMPR1A = biological target: T34, BMPR1A (Homo sapiens, UniProt P36894); settings: 1 uM
T34 construct: purchased Ambit KINOMEscan (DiscoverX)
Procedure: as §1

BRSK2 = biological target: T35, BRSK2 (Homo sapiens, UniProt Q8IWQ3); settings: BRSK2, 1 uM
T35 construct: purchased Ambit KINOMEscan (DiscoverX)
Procedure: as §1

FER = biological target: T36, FER (Homo sapiens, UniProt P16591); settings: 1 uM
T36 construct: purchased Ambit KINOMEscan (DiscoverX)
Procedure: as §1

PIK3CA(H1047Y) = biological target: T37, PIK3CA(H1047Y) (Homo sapiens, UniProt P42336, H1047Y); settings: 1 uM
T37 construct: purchased Ambit KINOMEscan (DiscoverX)
Procedure: as §1

KIT(V559D,T670I) = biological target: T38, KIT(V559D,T670I) (Homo sapiens, UniProt P10721, T670I/V559D); settings: 1 uM
T38 construct: purchased Ambit KINOMEscan (DiscoverX)
Procedure: as §1

T2 sequence (Q9H2X6 whole entry): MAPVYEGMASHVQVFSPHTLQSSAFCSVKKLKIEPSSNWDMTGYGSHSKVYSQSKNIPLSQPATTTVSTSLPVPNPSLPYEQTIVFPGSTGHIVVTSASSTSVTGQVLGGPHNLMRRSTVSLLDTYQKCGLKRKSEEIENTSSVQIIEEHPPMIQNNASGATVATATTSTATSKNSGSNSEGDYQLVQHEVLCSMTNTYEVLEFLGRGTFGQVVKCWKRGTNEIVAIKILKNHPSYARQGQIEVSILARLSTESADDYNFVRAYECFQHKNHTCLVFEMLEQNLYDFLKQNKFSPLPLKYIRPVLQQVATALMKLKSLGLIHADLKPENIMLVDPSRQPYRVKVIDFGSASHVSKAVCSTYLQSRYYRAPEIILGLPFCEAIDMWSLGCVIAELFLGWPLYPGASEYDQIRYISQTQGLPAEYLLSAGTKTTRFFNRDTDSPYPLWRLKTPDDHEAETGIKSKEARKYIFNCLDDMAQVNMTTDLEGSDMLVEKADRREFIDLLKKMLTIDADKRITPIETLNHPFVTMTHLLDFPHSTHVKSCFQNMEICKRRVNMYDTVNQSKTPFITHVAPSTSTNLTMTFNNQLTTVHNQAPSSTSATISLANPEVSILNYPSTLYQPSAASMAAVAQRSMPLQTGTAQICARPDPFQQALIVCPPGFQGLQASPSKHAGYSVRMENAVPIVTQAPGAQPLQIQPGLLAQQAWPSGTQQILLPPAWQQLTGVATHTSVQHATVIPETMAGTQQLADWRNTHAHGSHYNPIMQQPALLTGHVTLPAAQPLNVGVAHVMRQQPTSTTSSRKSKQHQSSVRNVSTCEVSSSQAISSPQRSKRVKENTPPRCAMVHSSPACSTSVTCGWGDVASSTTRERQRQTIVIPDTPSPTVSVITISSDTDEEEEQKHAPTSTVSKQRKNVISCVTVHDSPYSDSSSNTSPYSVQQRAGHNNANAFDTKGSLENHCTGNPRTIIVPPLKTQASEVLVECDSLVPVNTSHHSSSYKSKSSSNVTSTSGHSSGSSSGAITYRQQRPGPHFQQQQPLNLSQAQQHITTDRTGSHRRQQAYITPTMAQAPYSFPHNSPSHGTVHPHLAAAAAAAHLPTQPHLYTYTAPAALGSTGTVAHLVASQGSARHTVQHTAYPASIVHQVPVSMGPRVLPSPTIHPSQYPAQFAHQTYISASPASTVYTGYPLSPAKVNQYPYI
T23 sequence (Q15759 whole entry): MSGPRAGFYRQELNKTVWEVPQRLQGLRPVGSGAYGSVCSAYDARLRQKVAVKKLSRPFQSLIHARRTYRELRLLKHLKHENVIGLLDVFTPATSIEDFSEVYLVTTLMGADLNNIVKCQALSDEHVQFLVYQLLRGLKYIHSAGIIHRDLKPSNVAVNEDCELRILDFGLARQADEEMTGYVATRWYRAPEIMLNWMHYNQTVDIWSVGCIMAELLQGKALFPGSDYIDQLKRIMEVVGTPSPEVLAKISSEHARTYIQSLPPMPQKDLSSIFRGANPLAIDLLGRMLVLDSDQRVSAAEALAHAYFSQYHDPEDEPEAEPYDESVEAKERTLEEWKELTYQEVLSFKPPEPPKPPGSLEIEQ
T36 sequence (P16591 whole entry): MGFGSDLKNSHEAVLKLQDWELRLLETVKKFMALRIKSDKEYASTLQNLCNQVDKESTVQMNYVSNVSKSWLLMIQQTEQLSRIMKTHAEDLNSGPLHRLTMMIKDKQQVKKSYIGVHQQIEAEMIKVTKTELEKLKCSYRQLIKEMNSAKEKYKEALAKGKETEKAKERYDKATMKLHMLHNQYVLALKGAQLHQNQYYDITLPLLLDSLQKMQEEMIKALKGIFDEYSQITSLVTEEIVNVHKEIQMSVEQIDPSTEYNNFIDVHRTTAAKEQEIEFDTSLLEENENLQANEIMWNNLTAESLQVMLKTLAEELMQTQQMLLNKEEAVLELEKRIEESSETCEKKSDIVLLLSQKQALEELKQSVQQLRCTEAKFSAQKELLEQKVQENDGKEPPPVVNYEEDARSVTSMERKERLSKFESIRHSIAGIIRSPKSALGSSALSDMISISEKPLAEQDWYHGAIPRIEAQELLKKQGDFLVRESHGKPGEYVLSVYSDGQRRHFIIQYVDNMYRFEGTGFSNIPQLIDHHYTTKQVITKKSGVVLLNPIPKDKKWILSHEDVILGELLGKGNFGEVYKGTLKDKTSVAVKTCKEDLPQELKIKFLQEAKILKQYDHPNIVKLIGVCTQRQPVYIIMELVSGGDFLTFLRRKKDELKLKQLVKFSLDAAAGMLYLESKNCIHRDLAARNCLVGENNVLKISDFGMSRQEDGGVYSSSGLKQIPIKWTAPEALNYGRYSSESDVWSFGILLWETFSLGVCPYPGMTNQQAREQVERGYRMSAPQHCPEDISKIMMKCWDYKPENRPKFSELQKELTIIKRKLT
T35 sequence (Q8IWQ3 whole entry): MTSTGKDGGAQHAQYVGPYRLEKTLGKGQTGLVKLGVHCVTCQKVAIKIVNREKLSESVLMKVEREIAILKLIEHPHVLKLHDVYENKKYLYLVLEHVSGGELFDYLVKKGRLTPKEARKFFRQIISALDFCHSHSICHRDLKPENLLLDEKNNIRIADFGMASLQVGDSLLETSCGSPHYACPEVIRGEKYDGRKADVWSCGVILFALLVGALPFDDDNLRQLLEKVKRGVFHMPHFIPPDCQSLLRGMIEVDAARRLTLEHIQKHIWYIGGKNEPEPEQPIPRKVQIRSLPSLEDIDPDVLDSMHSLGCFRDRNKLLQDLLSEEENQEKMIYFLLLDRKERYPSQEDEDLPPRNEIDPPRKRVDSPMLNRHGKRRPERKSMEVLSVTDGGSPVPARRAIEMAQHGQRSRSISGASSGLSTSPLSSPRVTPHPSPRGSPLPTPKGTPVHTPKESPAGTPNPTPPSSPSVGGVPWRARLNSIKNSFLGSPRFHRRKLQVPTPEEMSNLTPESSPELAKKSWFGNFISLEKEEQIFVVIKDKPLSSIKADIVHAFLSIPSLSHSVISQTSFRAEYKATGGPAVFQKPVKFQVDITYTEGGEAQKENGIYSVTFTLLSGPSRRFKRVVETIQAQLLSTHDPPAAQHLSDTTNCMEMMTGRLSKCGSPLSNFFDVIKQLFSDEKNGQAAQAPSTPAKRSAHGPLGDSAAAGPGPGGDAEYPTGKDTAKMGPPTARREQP
T15 sequence (P10721 26-976 D816V): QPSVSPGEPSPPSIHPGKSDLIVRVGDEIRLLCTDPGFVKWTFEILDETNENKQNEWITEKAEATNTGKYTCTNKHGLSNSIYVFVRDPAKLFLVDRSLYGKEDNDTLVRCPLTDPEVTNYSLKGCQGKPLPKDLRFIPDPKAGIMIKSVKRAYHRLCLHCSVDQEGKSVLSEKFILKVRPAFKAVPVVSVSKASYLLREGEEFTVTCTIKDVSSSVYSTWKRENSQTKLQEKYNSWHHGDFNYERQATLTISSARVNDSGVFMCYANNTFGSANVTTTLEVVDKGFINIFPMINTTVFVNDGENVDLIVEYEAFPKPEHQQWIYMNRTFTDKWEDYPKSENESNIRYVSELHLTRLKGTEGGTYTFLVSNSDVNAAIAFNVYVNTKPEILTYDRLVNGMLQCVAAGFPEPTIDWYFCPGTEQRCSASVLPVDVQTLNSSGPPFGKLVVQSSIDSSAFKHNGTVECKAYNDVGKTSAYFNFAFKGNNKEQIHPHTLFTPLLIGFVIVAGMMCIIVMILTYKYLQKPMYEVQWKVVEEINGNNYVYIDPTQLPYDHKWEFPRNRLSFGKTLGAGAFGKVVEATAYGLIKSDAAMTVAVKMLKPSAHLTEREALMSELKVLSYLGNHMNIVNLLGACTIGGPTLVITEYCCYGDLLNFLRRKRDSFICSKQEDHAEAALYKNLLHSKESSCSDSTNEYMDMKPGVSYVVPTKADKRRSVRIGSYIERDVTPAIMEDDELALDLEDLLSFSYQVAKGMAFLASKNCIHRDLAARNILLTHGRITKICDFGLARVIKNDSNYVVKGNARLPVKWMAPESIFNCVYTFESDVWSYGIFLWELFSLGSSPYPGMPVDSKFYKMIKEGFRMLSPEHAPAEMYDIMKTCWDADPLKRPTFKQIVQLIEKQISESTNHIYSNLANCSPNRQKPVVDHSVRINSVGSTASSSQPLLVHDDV
T34 sequence (P36894 24-532): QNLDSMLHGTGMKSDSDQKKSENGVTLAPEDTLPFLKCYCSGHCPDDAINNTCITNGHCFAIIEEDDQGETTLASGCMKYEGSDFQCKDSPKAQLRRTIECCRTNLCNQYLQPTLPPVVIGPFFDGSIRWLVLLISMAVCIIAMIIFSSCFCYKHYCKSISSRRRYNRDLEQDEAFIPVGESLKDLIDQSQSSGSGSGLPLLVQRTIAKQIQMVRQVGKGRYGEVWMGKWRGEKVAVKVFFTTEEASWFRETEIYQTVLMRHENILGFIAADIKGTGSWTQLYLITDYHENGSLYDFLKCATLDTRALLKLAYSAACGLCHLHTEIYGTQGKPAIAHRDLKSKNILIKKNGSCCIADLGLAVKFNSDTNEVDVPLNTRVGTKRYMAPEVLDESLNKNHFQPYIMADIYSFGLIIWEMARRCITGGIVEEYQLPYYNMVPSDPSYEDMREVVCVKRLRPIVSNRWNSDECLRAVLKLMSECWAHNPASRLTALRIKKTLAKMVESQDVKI
T21 sequence (P27037 20-513): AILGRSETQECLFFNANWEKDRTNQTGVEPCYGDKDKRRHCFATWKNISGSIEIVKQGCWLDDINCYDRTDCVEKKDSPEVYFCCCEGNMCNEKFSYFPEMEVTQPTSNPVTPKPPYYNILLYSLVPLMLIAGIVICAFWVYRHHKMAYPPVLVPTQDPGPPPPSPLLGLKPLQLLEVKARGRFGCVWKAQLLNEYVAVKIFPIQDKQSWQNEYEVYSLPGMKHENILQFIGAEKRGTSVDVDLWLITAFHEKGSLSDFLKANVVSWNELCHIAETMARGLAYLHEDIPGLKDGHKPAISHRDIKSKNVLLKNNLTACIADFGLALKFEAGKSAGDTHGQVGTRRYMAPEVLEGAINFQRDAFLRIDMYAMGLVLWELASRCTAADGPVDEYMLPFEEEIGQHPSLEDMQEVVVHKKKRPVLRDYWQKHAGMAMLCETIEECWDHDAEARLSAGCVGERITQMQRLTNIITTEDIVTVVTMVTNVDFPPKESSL

| SMILES | % binding compared to no inhibitor control (PCTK2) [%] | % binding compared to no inhibitor control (HIPK2) [%] | % binding compared to no inhibitor control (PLK2) [%] | % binding compared to no inhibitor control (IKK-beta) [%] | % binding compared to no inhibitor control (EPHA2) [%] | % binding compared to no inhibitor control (MEK2) [%] | % binding compared to no inhibitor control (FLT4) [%] | % binding compared to no inhibitor control (FLT1) [%] | % binding compared to no inhibitor control (EPHB3) [%] | % binding compared to no inhibitor control (ZAP70) [%] | % binding compared to no inhibitor control [1] [%] | % binding compared to no inhibitor control [2] [%] | % binding compared to no inhibitor control (PIM3) [%] | % binding compared to no inhibitor control (SRPK2) [%] | % binding compared to no inhibitor control (KIT(D816V)) [%] | % binding compared to no inhibitor control (ERBB4) [%] | % binding compared to no inhibitor control (YES) [%] | % binding compared to no inhibitor control (p38-alpha) [%] | % binding compared to no inhibitor control (RIOK1) [%] | % binding compared to no inhibitor control (PIM2) [%] | other results |
| --- | --- | --- | --- | --- | --- | --- | --- | --- | --- | --- | --- | --- | --- | --- | --- | --- | --- | --- | --- | --- | --- |
| COc1ccc(-c2cc3nccn3c(Nc3ncccc3C(N)=O)n2)cc1OC.Cl.Cl [BAY61-3606, 2-[7-(3,4-dimethoxyphenyl)-imidazo [1,2-c]pyrimidin-5-ylamino] nicotinamide dihydrochloride, reference compound] | 100 | 9 | 50 | 37 | 100 | 86 | 100 | 100 | 98 | 9 | 100 | 96 | 81 | 53 | 4.7 | 90 | 96 | 100 | 31 | 87 | % inhibition ATP binding (HIPK2; HIPK2, KINOMEscan, 1 μM): 91%; % binding compared to no inhibitor control (ACVR2A): 100%; % binding compared to no inhibitor control (BMPR2): 46%; % binding compared to no inhibitor control (p38-beta): 100%; % binding compared to no inhibitor control [3]: 32%; % binding compared to no inhibitor control (LIMK2): 98%; % binding compared to no inhibitor control (CDKL2): 78%; % binding compared to no inhibitor control (MINK): 62%; % binding compared to no inhibitor control (EPHA3): 83%; % binding compared to no inhibitor control (MYLK): 55%; % binding compared to no inhibitor control (TAOK3): 100%; % binding compared to no inhibitor control (JNK2): 100%; % binding compared to no inhibitor control (CSNK1D): 74%; % binding compared to no inhibitor control (TSSK1B): 96%; % binding compared to no inhibitor control (BMPR1A): 79%; % binding compared to no inhibitor control (BRSK2): 84%; % binding compared to no inhibitor control (FER): 69%; % binding compared to no inhibitor control (PIK3CA(H1047Y)): 80%; % binding compared to no inhibitor control (KIT(V559D,T670I)): 9.3% |
| COc1ccccc1Nc1nc(-c2ccc(OC)c(OC)c2)cc2nccn12 [BAY derivative 6] | 100 | 100 | 100 | 89 | 89 | 100 | 86 | 100 | 84 | 100 | 100 | 82 | 82 | 90 | 22 | 100 | 57 | 95 | 95 | 91 | % binding compared to no inhibitor control (ACVR2A): 100%; % binding compared to no inhibitor control (BMPR2): 87%; % binding compared to no inhibitor control (p38-beta): 80%; % binding compared to no inhibitor control [3]: 74%; % binding compared to no inhibitor control (LIMK2): 89%; % binding compared to no inhibitor control (CDKL2): 100%; % binding compared to no inhibitor control (MINK): 100%; % binding compared to no inhibitor control (EPHA3): 100%; % binding compared to no inhibitor control (MYLK): 100%; % binding compared to no inhibitor control (TAOK3): 100%; % binding compared to no inhibitor control (JNK2): 100%; % binding compared to no inhibitor control (CSNK1D): 100%; % binding compared to no inhibitor control (TSSK1B): 100%; % binding compared to no inhibitor control (BMPR1A): 100%; % binding compared to no inhibitor control (BRSK2): 100%; % binding compared to no inhibitor control (FER): 100%; % binding compared to no inhibitor control (PIK3CA(H1047Y)): 100%; % binding compared to no inhibitor control (KIT(V559D,T670I)): 87% |
